Read-outs that look alike come from different tables or passages of the source.
Key:
[1] = tested on: M-NFS-60 mouse myeloid leukemia lymphocytes; assay: CSF-1R cell proliferation study (Cell Titer Glo); format: cell-based; details: Lymphocyte, 72 h;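 also: M-CSF-driven proliferation, viable cells quantified as ATP by luminescence, compounds tested as 3-fold serial dilutions, values from four-parameter curve fits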
CSF-1R = molecular target: T1, CSF-1R (Homo sapiens, UniProt P07333); assay: CSF-1R in vitro biochemical kinase study (ADP-Glo assay)
T1 construct: 3.95 nM of CSF-1R, 500 μM of ATP

[2] = read-out: Cytological experiment CS1-1R Absolute IC50 (nM)
[3] = read-out: Cytological experiment CSF-1R IC50 (nM)
[4] = M-NFS-60 cells, M-CSF, 3 days, CTG, * = average of multiple tests, read-out: Cytological experiment CSF-1R IC50
[5] = M-NFS-60 cells, M-CSF, 3 days, CTG, absolute half maximal inhibition, * = average of multiple tests, read-out: Cytological experiment CS1-1R Absolute IC50

T1 sequence (P07333 20-972): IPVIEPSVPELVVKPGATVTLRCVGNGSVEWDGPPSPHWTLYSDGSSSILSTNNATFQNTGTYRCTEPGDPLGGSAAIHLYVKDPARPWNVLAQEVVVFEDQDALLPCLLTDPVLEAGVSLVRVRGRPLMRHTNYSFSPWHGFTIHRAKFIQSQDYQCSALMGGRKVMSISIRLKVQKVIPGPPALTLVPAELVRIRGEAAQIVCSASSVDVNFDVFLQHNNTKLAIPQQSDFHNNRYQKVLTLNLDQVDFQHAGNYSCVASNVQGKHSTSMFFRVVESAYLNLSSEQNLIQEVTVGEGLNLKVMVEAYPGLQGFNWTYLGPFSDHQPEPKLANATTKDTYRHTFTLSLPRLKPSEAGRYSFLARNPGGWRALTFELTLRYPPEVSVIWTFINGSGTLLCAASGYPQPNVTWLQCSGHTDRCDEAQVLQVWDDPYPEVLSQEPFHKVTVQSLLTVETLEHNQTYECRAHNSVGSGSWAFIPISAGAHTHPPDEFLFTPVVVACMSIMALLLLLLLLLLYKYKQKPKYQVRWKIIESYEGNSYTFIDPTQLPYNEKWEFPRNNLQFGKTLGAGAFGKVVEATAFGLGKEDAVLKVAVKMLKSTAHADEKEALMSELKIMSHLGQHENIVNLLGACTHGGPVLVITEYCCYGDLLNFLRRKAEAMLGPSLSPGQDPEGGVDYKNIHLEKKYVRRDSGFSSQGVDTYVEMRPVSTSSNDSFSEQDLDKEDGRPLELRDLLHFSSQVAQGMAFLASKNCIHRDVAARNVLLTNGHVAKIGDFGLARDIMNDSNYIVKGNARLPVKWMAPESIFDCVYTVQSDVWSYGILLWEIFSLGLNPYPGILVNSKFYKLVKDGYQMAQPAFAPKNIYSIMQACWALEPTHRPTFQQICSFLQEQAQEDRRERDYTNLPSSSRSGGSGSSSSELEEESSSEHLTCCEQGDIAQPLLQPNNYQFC

| SMILES | IC50 [1, 2] [nM] | IC50 [1, 3] [nM] | IC50 (CSF-1R) [nM] | IC50 [1, 4] [nM] | IC50 [1, 5] [nM] |
| --- | --- | --- | --- | --- | --- |
| CCc1nc(NC(=O)N2CCC(C)(C)C2=O)ccc1Oc1ccnc(-c2cnn(C)c2)c1 [Example 3, N-(6-ethyl-5-((2-(1-methyl-1H-pyrazol-4-yl)pyridin-4-yl)oxy)pyridin-2-yl)-3,3-dimethyl-2-oxopyrrolidine-1-carboxamide] | 687 | 667 | 229 |  |  |
| Cc1nc(NC(=O)N2CCC(C)(C)C2=O)ccc1Oc1ccnc(-c2cnn(CCN3CCOCC3)c2)c1 [Example 8, 3,3-dimethyl-N-(6-methyl-5-((2-(1-(2-morpholinoethyl)-1H-pyrazol-4-yl)pyridin-4-yl)oxy)pyridin-2-yl)-2-oxopyrrolidine-1-carboxamide] | 110 | 148 | 57.9 |  |  |
| Cc1nc(NC(=O)N2CCC(C)(C)C2=O)ccc1Oc1ccnc(-c2cnn([C@H]3CCOC3)c2)c1 [Example 12, (S)-3,3-dimethyl-N-(6-methyl-5-((2-(1-(tetrahydrofuran-3-yl)-1H-pyrazol-4-yl)pyridin-4-yl)oxy)pyridin-2-yl)-2-oxopyrrolidine-1-carboxamide] | 134 | 158 | 71.7 |  |  |
| Cc1nc(NC(=O)N2CCC(C)(C)C2=O)ccc1Oc1ccnc(-c2cnn(C3CCN(C)C3)c2)c1 (stereo not shown) [Example 17] |  |  | 101 |  |  |
| Cc1nc(NC(=O)N2CCC(C)(OCc3ccccc3)C2=O)ccc1Oc1ccnc(-c2cnn(C)c2)c1 (stereo not shown) [Example 36, 3-(benzyloxy)-3-methyl-N-(6-methyl-5-((2-(1-methyl-1H-pyrazol-4-yl)pyridin-4-yl)oxy)pyridin-2-yl)-2-oxopyrrolidine-1-carboxamide] |  |  |  | 500 | 727 |
| Cc1nc(NC(=O)N2CCCC2=O)ccc1Oc1ccnc(-c2cnn(C)c2)c1 [Example 38, N-(6-methyl-5-((2-(1-methyl-1H-pyrazol-4-yl)pyridin-4-yl)oxy)pyridin-2-yl)-2-oxopyrrolidine-1-carboxamide] |  |  | 1470 |  |  |

Second part, the molecule after the results:

| IC50 [1, 2] [nM] | IC50 [1, 3] [nM] | IC50 (CSF-1R) [nM] | IC50 [1, 4] [nM] | IC50 [1, 5] [nM] | SMILES |
| --- | --- | --- | --- | --- | --- |
| 213 | 216 | 42.9 |  |  | Cc1cc(-c2cc(Oc3ccc(NC(=O)N4CCC(C)(C)C4=O)nc3C)ccn2)ccn1 [Example 4, 3,3-dimethyl-N-(6-methyl-5-((2′-methyl-[2,4′-bipyridin]-4-yl)oxy)pyridin-2-yl)-2-oxopyrrolidine-1-carboxamide] |
| 334 | 454 | 54.7 |  |  | Cc1ncc(-c2cc(Oc3ccc(NC(=O)N4CCC(C)(C)C4=O)nc3C)ccn2)s1 [Example 5, 3,3-dimethyl-N-(6-methyl-5-((2-(2-methylthiazol-5-yl)pyridin-4-yl)oxy)pyridin-2-yl)-2-oxopyrrolidine-1-carboxamide] |
| 203 | 222 | 72.5 |  |  | COCCn1cc(-c2cc(Oc3ccc(NC(=O)N4CCC(C)(C)C4=O)nc3C)ccn2)cn1 [Example 7, N-(5-((2-(1-(2-methoxyethyl)-1H-pyrazol-4-yl)pyridin-4-yl)oxy)-6-methylpyridin-2-yl)-3,3-dimethyl-2-oxopyrrolidine-1-carboxamide] |
| 193 | 216 | 80.2 |  |  | Cc1nc(NC(=O)N2CCC(C)(C)C2=O)ccc1Oc1ccnc(-c2cn[nH]c2)c1 [Example 9, N-(5-((2-(1H-pyrazol-4-yl)pyridin-4-yl)oxy)-6-methylpyridin-2-yl)-3,3-dimethyl-2-oxopyrrolidine-1-carboxamide] |
|  |  | 230 |  |  | Cc1nc(NC(=O)N2CCC(C)(C)C2=O)ccc1Oc1ccnc(-c2cnn(CC(C)(C)O)c2)c1 [Example 16, N-(5-((2-(1-(2-hydroxy-2-methylpropyl)-1H-pyrazol-4-yl)pyridin-4-yl)oxy)-6-methylpyridin-2-yl)-3,3-dimethyl-2-oxopyrrolidine-1-carboxamide] |
|  |  |  | 125 | 114 | Cc1nc(NC(=O)N2CCC(C)(C)C2=O)ccc1Oc1ccnc(-c2cnn(C3COC3)c2)c1 [Example 18, 3,3-dimethyl-N-(6-methyl-5-((2-(1-(oxetan-3-yl)-1H-pyrazol-4-yl)pyridin-4-yl)oxy)pyridin-2-yl)-2-oxopyrrolidine-1-carboxamide] |

Source: US11149021B2, “N-(azaaryl)cyclolactam-1-carboxamide derivative, preparation method therefor, and use thereof” (Abbisko Therapeutics Co., Ltd., priority 2017, dated 2021)
